Source: US20250313563A1, “GLYCOGEN SYNTHASE KINASE 3 INHIBITORS AND USES THEREOF” (The Broad Institute, Inc., priority 2022, published 2025)
pIC50: −log10 of the molar value. Where two headings read alike, the source gives them in different places.

Experiments:
[1] = target: GSK3b (GST-full length GSK3b) (Homo sapiens (Human), UniProt P49841); assay: GSK3b TR-FRET kinase assay; format: biochemical
In short: (§1)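 IC50 came from the normalized 665/615 nm TR-FRET ratio plotted against log compound concentration. The Tb-labelled pSer641 antibody and streptavidin-d2 detected phosphorylation of biotinylated S645-primed glycogen synthase peptide (200 nM) by 1 nM full-length GST-kinase. ATP was 4 μM for α, 2 μM for β, or 1 mM.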

[2] = target: GSK3α (GST-full length GSK3α) (Homo sapiens (Human), UniProt P49840); assay: GSK3α TR-FRET kinase assay; format: biochemical
In short: as §1

[3] = 1 nM GSK3b, 2 μM ATP, 30 minute preincubation, Table 16, read-out: GSK3-B TR-FRET BIOCHEMICAL (TR-FRET), IC50
[4] = 1 nM GSK3α, 4 μM ATP, 30 minute preincubation, Table 16, read-out: GSK3-A TR-FRET BIOCHEMICAL (TR-FRET), IC50
[5] = read-out: GSK3-B (TR-FRET 1 mM ATP), GMean, IC50, 1 mM ATP, geometric mean
[6] = read-out: GSK3-A (TR-FRET 1 mM ATP), GMean, IC50, 1 mM ATP, geometric mean
[7] = 1 nM GSK3b, 2 μM ATP, 30 minute preincubation, Table 16, read-out: GSK3-B TR-FRET BIOCHEMICAL (TR-FRET)
[8] = 1 nM GSK3α, 4 μM ATP, 30 minute preincubation, Table 16, read-out: GSK3-A TR-FRET BIOCHEMICAL (TR-FRET)
[9] = GSK3-B (TR-FRET 1 mM ATP), GMean, IC50, 1 mM ATP, geometric mean
[10] = GSK3-A (TR-FRET 1 mM ATP), GMean, IC50, 1 mM ATP, geometric mean
[11] = 1 nM GSK3b, 2 μM ATP, 30 minute preincubation, read-out: GSK3-B TR-FRET BIOCHEMICAL (TR-FRET), IC50
[12] = 1 nM GSK3α, 4 μM ATP, 30 minute preincubation, read-out: GSK3-A TR-FRET BIOCHEMICAL (TR-FRET), IC50

Sequence of GSK3α (GST-full length GSK3α) (P49840 whole entry): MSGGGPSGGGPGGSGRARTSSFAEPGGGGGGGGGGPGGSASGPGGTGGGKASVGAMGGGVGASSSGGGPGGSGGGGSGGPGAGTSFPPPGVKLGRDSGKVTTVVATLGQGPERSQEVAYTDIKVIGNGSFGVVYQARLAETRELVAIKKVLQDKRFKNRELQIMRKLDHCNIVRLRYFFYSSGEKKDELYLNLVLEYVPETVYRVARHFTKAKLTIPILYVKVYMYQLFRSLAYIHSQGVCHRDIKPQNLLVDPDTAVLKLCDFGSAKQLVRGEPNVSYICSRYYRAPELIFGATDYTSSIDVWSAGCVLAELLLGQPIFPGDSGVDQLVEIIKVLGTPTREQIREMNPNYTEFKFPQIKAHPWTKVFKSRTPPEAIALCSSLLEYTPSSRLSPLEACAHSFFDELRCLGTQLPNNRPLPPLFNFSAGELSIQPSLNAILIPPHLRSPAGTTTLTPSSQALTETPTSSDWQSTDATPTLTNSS
Sequence of GSK3b (GST-full length GSK3b) (P49841 whole entry): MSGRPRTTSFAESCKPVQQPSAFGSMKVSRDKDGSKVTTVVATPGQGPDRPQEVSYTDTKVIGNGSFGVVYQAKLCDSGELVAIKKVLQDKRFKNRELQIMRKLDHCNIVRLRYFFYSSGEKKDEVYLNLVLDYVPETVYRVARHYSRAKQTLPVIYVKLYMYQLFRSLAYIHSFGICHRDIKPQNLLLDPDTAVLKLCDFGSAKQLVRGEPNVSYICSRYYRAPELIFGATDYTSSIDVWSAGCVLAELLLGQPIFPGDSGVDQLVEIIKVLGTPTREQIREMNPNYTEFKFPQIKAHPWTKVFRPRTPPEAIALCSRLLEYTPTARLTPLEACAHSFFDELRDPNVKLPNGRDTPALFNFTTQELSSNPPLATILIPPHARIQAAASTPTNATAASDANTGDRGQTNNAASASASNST

Structure (SMILES) | pIC50 [1, 3] | pIC50 [2, 4] | pIC50 [1, 7] | pIC50 [2, 8] | other results
CC[C@]1(c2cccc(N3CCC3)c2)C2=C(CC(C)(C)CC2=O)Nc2n[nH]cc21 [Compound 889632] | < 5.30 | < 5.30 | – | – | –
CCC1(c2cccc(N3CCCc4ncccc43)c2)C2=C(CC(C)(C)CC2=O)Nc2n[nH]cc21 (centres unmarked) [Compound 889639] | ≥ 7.00 | ≥ 7.00 | – | – | pIC50 [1, 5]: 6.00 to 7.00; pIC50 [2, 6]: ≥ 7.00
CC1(C)CC(=O)C2=C(C1)Nc1n[nH]cc1[C@]21C[C@H](c2ccncc2)C1 [Compound 889664] | – | – | 6.00 to 7.00 | ≥ 7.00 | –
CC1(C)CC(=O)C2=C(C1)Nc1n[nH]cc1[C@]21C[C@@H](c2ccncc2)C1 [Compound 889665] | – | – | ≥ 7.00 | ≥ 7.00 | pIC50 [1, 9]: 6.00 to 7.00; pIC50 [2, 10]: ≥ 7.00
CCC1(c2cccc(N(C(C)=O)C(C)C)c2)C2=C(CC(C)(C)CC2=O)Nc2n[nH]cc21 (centres unmarked) [Compound 893305] | ≥ 7.00 | ≥ 7.00 | – | – | –
CCC1(c2cccc(N(CCOC)C(C)=O)c2)C2=C(CC(C)(C)CC2=O)Nc2n[nH]cc21 (centres unmarked) [Compound 893306] | ≥ 7.00 | ≥ 7.00 | – | – | –
O=C1CC2(CCCCC2)CC2=C1C1(CCOCC1)c1c[nH]nc1N2 [Compound 893307] | – | – | 6.00 to 7.00 | ≥ 7.00 | –
O=C1CC2(CCCC2)CC2=C1C1(CCOCC1)c1c[nH]nc1N2 [Compound 893308] | – | – | 6.00 to 7.00 | ≥ 7.00 | –
O=C1CC(c2ccccc2)CC2=C1C1(CCOCC1)c1c[nH]nc1N2 (centres unmarked) [Compound 893309] | 5.30 to 6.00 | 6.00 to 7.00 | – | – | –
COc1ccccc1S(=O)(=O)N1CCC2(CC1)C1=C(CC(C)(C)CC1=O)Nc1n[nH]cc12 [Compound 893310] | – | – | ≥ 7.00 | ≥ 7.00 | pIC50 [1, 9]: 6.00 to 7.00; pIC50 [2, 10]: ≥ 7.00
CC1(C)CC(=O)C2=C(C1)Nc1n[nH]cc1C21CCN(S(=O)(=O)c2ccc(F)cc2)CC1 [Compound 893311] | – | – | ≥ 7.00 | ≥ 7.00 | pIC50 [1, 9]: 5.30 to 6.00; pIC50 [2, 10]: 6.00 to 7.00
CC1(C)CC(=O)C2=C(C1)Nc1n[nH]cc1C21CCC2(CC2)CC1 [Compound 893312] | – | – | – | – | pIC50 [1, 11]: ≥ 7.00; pIC50 [2, 12]: ≥ 7.00
CN1CCCC2(CC1)C1=C(CC(C)(C)CC1=O)Nc1n[nH]cc12 (centres unmarked) [Compound 893313] | < 5.30 | < 5.30 | – | – | –
CC(=O)N1CC2(C1)C1=C(CC(C)(C)CC1=O)Nc1n[nH]cc12 [Compound 893314] | < 5.30 | 5.30 to 6.00 | – | – | –
CC1(C)CC(=O)C2=C(C1)Nc1n[nH]cc1C21CN(C(=O)c2ccccc2)C1 [Compound 893315] | < 5.30 | < 5.30 | – | – | –
C[C@@H]1C[C@H](C)C(=O)C2=C1Nc1n[nH]cc1C21CCOCC1 [Compound 893316] | 6.00 to 7.00 | ≥ 7.00 | – | – | –
C[C@H]1CCC[C@]2(C1)C1=C(CC(C)(C)CC1=O)Nc1n[nH]cc12 [Compound 893318] | – | – | 6.00 to 7.00 | 6.00 to 7.00 | –
C[C@H]1CCC[C@@]2(C1)C1=C(CC(C)(C)CC1=O)Nc1n[nH]cc12 [Compound 893319] | – | – | 6.00 to 7.00 | 6.00 to 7.00 | –
C[C@@H]1CCC[C@@]2(C1)C1=C(CC(C)(C)CC1=O)Nc1n[nH]cc12 [Compound 893320] | – | – | ≥ 7.00 | ≥ 7.00 | –
CCC1(c2cc(-c3ccncc3)ccc2C)C2=C(CC(C)(C)CC2=O)Nc2n[nH]cc21 (centres unmarked) [Compound 893323] | 6.00 to 7.00 | ≥ 7.00 | – | – | pIC50 [1, 5]: < 5.30; pIC50 [2, 6]: 6.00 to 7.00
CC[C@]1(c2cc(-c3ccncc3)ccc2F)C2=C(CC(C)(C)CC2=O)Nc2n[nH]cc21 [Compound 893324] | < 5.30 | 5.30 to 6.00 | – | – | –
CC1(C)CC(=O)C2=C(C1)Nc1n[nH]cc1C21CCS(=O)(=O)CC1 [Compound 896013] | – | – | 6.00 to 7.00 | 6.00 to 7.00 | –
CCC1(c2cccc(C(F)(F)F)c2)C2=C(CCN(Cc3ccccc3)C2=O)Nc2n[nH]cc21 (centres unmarked) [Compound 897749] | – | – | – | – | pIC50 [1, 11]: < 5.30; pIC50 [2, 12]: 6.00 to 7.00
C[C@@H]1CC[C@]2(C1)C1=C(CC(C)(C)CC1=O)Nc1n[nH]cc12 [Compound 897750] | – | – | ≥ 7.00 | ≥ 7.00 | –
C[C@H]1CC[C@@]2(C1)C1=C(CC(C)(C)CC1=O)Nc1n[nH]cc12 [Compound 897751] | – | – | 6.00 to 7.00 | ≥ 7.00 | –
CC1(C)CC(=O)C2=C(C1)Nc1n[nH]cc1C21Cc2ccccc2C1 [Compound 897752] | – | – | 6.00 to 7.00 | ≥ 7.00 | –
